#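 All cell lines were grown in 96-well plates and treated with compound for 48 hours. GI50 marks 50% less growth. The concentration for full growth arrest is given as TGI.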
# Assays:
# Assay in all cases: growth of human tumour cells (NCI), 48 h
# TK-10 renal = test system: TK-10 renal
# HL-60(TB) leukemia = test system: HL-60(TB) leukemia
# NCI-H460 lung = test system: NCI-H460 lung
# UACC-257 melanoma = test system: UACC-257 melanoma
# UACC-62 melanoma = test system: UACC-62 melanoma
# DU-145 prostate = test system: DU-145 prostate
# HOP-92 NSCLC = test system: HOP-92 NSCLC
# 786-0 renal = test system: 786-0 renal
# SN12C renal = test system: SN12C renal
# HS 578T breast = test system: HS 578T breast
# MALME-3M melanoma = test system: MALME-3M melanoma
# HCT-15 colon = test system: HCT-15 colon
# COLO 205 colon = test system: COLO 205 colon
# RPMI-8226 leukemia = test system: RPMI-8226 leukemia
# HT29 colon = test system: HT29 colon
# UO-31 renal = test system: UO-31 renal
# BT-549 breast = test system: BT-549 breast
# OVCAR-3 ovarian = test system: OVCAR-3 ovarian
# NCI-H23 lung = test system: NCI-H23 lung
# HCC-2998 colon = test system: HCC-2998 colon
# NCI/ADR-RES ovarian = test system: NCI/ADR-RES ovarian
# SK-MEL-2 melanoma = test system: SK-MEL-2 melanoma
# M14 melanoma = test system: M14 melanoma
# NCI-H226 lung = test system: NCI-H226 lung
# K-562 leukemia = test system: K-562 leukemia
# IGROV1 ovarian = test system: IGROV1 ovarian
# EKVX NSCLC = test system: EKVX NSCLC
# T-47D breast = test system: T-47D breast
# CCRF-CEM leukemia = test system: CCRF-CEM leukemia
# LOX IMVI melanoma = test system: LOX IMVI melanoma
# SR leukemia = test system: SR leukemia
# PC-3 prostate = test system: PC-3 prostate
# MDA-MB-435 = test system: MDA-MB-435
# A498 renal = test system: A498 renal
# SF-268 CNS = test system: SF-268 CNS
# OVCAR-4 ovarian = test system: OVCAR-4 ovarian
# HCT-116 colon = test system: HCT-116 colon
# SK-MEL-5 melanoma = test system: SK-MEL-5 melanoma
# OVCAR-5 ovarian = test system: OVCAR-5 ovarian
# SF-539 CNS = test system: SF-539 CNS
# ACHN renal = test system: ACHN renal
# A549 NSCLC = test system: A549 NSCLC
# SK-MEL-28 melanoma = test system: SK-MEL-28 melanoma
# MDA-MB-231 breast = test system: MDA-MB-231 breast
# RXF 393 renal = test system: RXF 393 renal
# SF-295 CNS = test system: SF-295 CNS
# KM12 colon = test system: KM12 colon
# MOLT-4 leukemia = test system: MOLT-4 leukemia
# SW-620 colon = test system: SW-620 colon
# SNB-75 CNS = test system: SNB-75 CNS
# SNB-19 CNS = test system: SNB-19 CNS
# NCI-H522 lung = test system: NCI-H522 lung
# U251 CNS = test system: U251 CNS
# HOP-62 NSCLC = test system: HOP-62 NSCLC
# CAKI-1 renal = test system: CAKI-1 renal
# MCF7 breast = test system: MCF7 breast
# OVCAR-8 ovarian = test system: OVCAR-8 ovarian
smiles,measurement,setting,value
Clc1nc(Cl)c2ncn(Cc3cccc(Cn4cnc5c(Cl)nc(Cl)nc54)c3)c2n1,GI50,TK-10 renal,2.46 µM
same,TGI,TK-10 renal,7.31 µM
same,GI50,HL-60(TB) leukemia,2.9 µM
same,TGI,HL-60(TB) leukemia,82.8 µM
same,GI50,NCI-H460 lung,3.7 µM
same,TGI,NCI-H460 lung,13.6 µM
same,GI50,UACC-257 melanoma,4.78 µM
same,TGI,UACC-257 melanoma,17.2 µM
same,GI50,UACC-62 melanoma,2.41 µM
same,TGI,UACC-62 melanoma,5.91 µM
same,GI50,DU-145 prostate,1.72 µM
same,TGI,DU-145 prostate,3.09 µM
same,GI50,HOP-92 NSCLC,6.13 µM
same,TGI,HOP-92 NSCLC,22.4 µM
same,GI50,786-0 renal,12.3 µM
same,TGI,786-0 renal,26.6 µM
same,GI50,SN12C renal,4.73 µM
same,TGI,SN12C renal,18.3 µM
same,GI50,HS 578T breast,2.69 µM
same,TGI,HS 578T breast,7.29 µM
same,GI50,MALME-3M melanoma,3.11 µM
same,TGI,MALME-3M melanoma,9.84 µM
same,GI50,HCT-15 colon,5.78 µM
same,TGI,HCT-15 colon,22.3 µM
same,GI50,COLO 205 colon,3.37 µM
same,TGI,COLO 205 colon,11.3 µM
same,GI50,RPMI-8226 leukemia,2.59 µM
same,TGI,RPMI-8226 leukemia,11.1 µM
same,GI50,HT29 colon,4.42 µM
same,TGI,HT29 colon,> 100 µM
same,GI50,UO-31 renal,1.92 µM
same,TGI,UO-31 renal,3.55 µM
same,GI50,BT-549 breast,3.35 µM
same,TGI,BT-549 breast,11.3 µM
same,GI50,OVCAR-3 ovarian,2.38 µM
same,TGI,OVCAR-3 ovarian,7.22 µM
same,GI50,NCI-H23 lung,8.5 µM
same,TGI,NCI-H23 lung,22.1 µM
same,GI50,HCC-2998 colon,2.38 µM
same,TGI,HCC-2998 colon,7.11 µM
same,GI50,NCI/ADR-RES ovarian,12.5 µM
same,TGI,NCI/ADR-RES ovarian,35 µM
same,GI50,SK-MEL-2 melanoma,2.79 µM
same,TGI,SK-MEL-2 melanoma,7.72 µM
same,GI50,M14 melanoma,2.77 µM
same,TGI,M14 melanoma,7.65 µM
same,GI50,NCI-H226 lung,4.76 µM
same,TGI,NCI-H226 lung,26.8 µM
same,GI50,K-562 leukemia,3.11 µM
same,TGI,K-562 leukemia,17.1 µM
same,GI50,IGROV1 ovarian,7.33 µM
same,TGI,IGROV1 ovarian,20.2 µM
same,GI50,EKVX NSCLC,3.09 µM
same,TGI,EKVX NSCLC,11 µM
same,GI50,T-47D breast,3.01 µM
same,TGI,T-47D breast,8.43 µM
same,GI50,CCRF-CEM leukemia,2.25 µM
same,TGI,CCRF-CEM leukemia,5.32 µM
same,GI50,LOX IMVI melanoma,2.23 µM
same,TGI,LOX IMVI melanoma,5.57 µM
same,GI50,SR leukemia,2.94 µM
same,TGI,SR leukemia,8.41 µM
same,GI50,PC-3 prostate,3.99 µM
same,TGI,PC-3 prostate,13.6 µM
same,GI50,MDA-MB-435,7.29 µM
same,TGI,MDA-MB-435,22.2 µM
same,GI50,A498 renal,4.59 µM
same,TGI,A498 renal,17.2 µM
same,GI50,SF-268 CNS,13 µM
same,TGI,SF-268 CNS,31.5 µM
same,GI50,OVCAR-4 ovarian,3.69 µM
same,TGI,OVCAR-4 ovarian,13.2 µM
same,GI50,HCT-116 colon,2.45 µM
same,TGI,HCT-116 colon,6.28 µM
same,GI50,SK-MEL-5 melanoma,2.47 µM
same,TGI,SK-MEL-5 melanoma,5.87 µM
same,GI50,OVCAR-5 ovarian,15 µM
same,TGI,OVCAR-5 ovarian,28.8 µM
same,GI50,SF-539 CNS,1.39 µM
same,TGI,SF-539 CNS,3.13 µM
same,GI50,ACHN renal,2.53 µM
same,TGI,ACHN renal,6.21 µM
same,GI50,A549 NSCLC,11.3 µM
same,TGI,A549 NSCLC,26.3 µM
same,GI50,SK-MEL-28 melanoma,4.25 µM
same,TGI,SK-MEL-28 melanoma,22.1 µM
same,GI50,MDA-MB-231 breast,2.66 µM
same,TGI,MDA-MB-231 breast,7 µM
same,GI50,RXF 393 renal,1.92 µM
same,TGI,RXF 393 renal,3.72 µM
same,GI50,SF-295 CNS,16.5 µM
same,TGI,SF-295 CNS,30.9 µM
same,GI50,KM12 colon,2.87 µM
same,TGI,KM12 colon,8.95 µM
same,GI50,MOLT-4 leukemia,3.48 µM
same,TGI,MOLT-4 leukemia,13.7 µM
same,GI50,SW-620 colon,1.82 µM
same,TGI,SW-620 colon,3.34 µM
same,GI50,SNB-75 CNS,5.58 µM
same,TGI,SNB-75 CNS,22.6 µM
same,GI50,SNB-19 CNS,3.02 µM
same,TGI,SNB-19 CNS,13.7 µM
same,GI50,NCI-H522 lung,2.9 µM
same,TGI,NCI-H522 lung,7.01 µM
same,GI50,U251 CNS,3.91 µM
same,TGI,U251 CNS,13.9 µM
same,GI50,HOP-62 NSCLC,4.97 µM
same,TGI,HOP-62 NSCLC,18 µM
same,GI50,CAKI-1 renal,12 µM
same,TGI,CAKI-1 renal,26.3 µM
same,GI50,MCF7 breast,3.66 µM
same,TGI,MCF7 breast,37.4 µM
same,GI50,OVCAR-8 ovarian,4.67 µM
same,TGI,OVCAR-8 ovarian,18.6 µM
